Reference: patent EP4631938A1, “NITROGEN-CONTAINING HETEROCYCLE WITH SEROTONIN RECEPTOR-BINDING ACTIVITY AND CARBOCYCLIC DERIVATIVE” (Shionogi & Co., Ltd, priority 2022, dated 2024)
Where two headings read alike, the source gives them in different places.

Assays:
[1] = target: T1, human recombinant 5-HT2C receptor (Homo sapiens, UniProt P28335); assay: Test Example 2-2: 5-HT2C receptor binding inhibition test ([3H]-Mesulergine; non-specific ligand Ketanserin); conditions: non-specific binding with 500 µmol/L Ketanserin, 37°C, 2 hours
T1 construct: expressed in transfected cells; host or cells: Jump-In HEK cells (membrane preparation)
T1 sequence (P28335 33-458): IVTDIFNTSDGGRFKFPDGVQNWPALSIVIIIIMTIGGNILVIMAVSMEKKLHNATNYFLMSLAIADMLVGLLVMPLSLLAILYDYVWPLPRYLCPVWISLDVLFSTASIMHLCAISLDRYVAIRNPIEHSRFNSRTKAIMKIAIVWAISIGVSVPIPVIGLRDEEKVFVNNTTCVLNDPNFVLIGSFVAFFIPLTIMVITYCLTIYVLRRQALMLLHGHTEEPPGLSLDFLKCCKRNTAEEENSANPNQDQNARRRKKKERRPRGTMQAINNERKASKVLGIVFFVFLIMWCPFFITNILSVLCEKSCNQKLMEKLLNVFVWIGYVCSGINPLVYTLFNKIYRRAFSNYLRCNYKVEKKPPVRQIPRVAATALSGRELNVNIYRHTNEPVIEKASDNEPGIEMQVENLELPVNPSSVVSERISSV
Method: The Kd value is calculated when the lot of the cell membrane is changed. 1 mmol/L non-specific binding calculating compound dissolved in DMSO or DMSO is previously dispensed to the microplate by 0.5 µL, and the cell membrane is diluted with an Assay buffer. The radioactive ligand solution is diluted step by step, and counts are checked with a liquid scintillator. The Assay buffer containing diluted cell membranes is dispensed by 50 µL/well into the microplate. The radioactive ligand solution is then dispensed by 50 µL/well into the microplate and the plate is sealed. The microplate is allowed to stand at 37°C for 2 hours. During this time, 50 mmol/L Tris-HCl (pH 7.4) is dispensed by 50 µL/well into the UniFilter plate and allowed to stand at 4°C for 1 hour or longer. Thereafter, filtration is performed with a Cell Harvester (PerkinElmer). The radioactive ligand solution is dispensed by 10 µL/well into empty wells of the UniFilter plate. After drying the UniFilter plate at room temperature, MicroScinti20 is dispensed by 50 µL/well into the UniFilter plate, and the plate is sealed. UniFilter plate is allowed to stand at room temperature overnight. The radioactivity of [^3H]-Mesulergine bound to the 5-HT2C receptor is measured using Microbeta2 (PerkinElmer) at a measurement time of 1 min/well. The Saturation curve is drawn from the measured value, and the Kd value is calculated from the slope of the Scatchard Plot.
A compound solution dissolved in DMSO is dispensed to a microplate by 0.5 µL, and a cell membrane and a hot ligand are each diluted with an Assay buffer. The Assay buffer containing diluted cell membrane is then dispensed by 50 µL/well into the microplate. The radioactive ligand solution is then dispensed by 50 µL/well into the microplate and the plate is sealed. The microplate is then allowed to stand at 37°C for 2 hours. During this time, 50 mmol/L Tris-HCl (pH 7.4) is dispensed by 50 µL/well into the UniFilter plate and allowed to stand at 4°C for 1 hour or longer. Thereafter, filtration is performed with a Cell Harvester (PerkinElmer). After drying the UniFilter plate at room temperature, MicroScinti20 is dispensed by 50 µL/well into the UniFilter plate, and the plate is sealed. UniFilter plate is allowed to stand at room temperature overnight. The radioactivity of [^3H]-Mesulergine bound to the 5-HT2C receptor is measured using Microbeta2 (PerkinElmer) at a measurement time of 1 min/well. Non-specific binding is calculated from the radioactivity of [^3H]-Mesulergine in the presence of 500 µmol/L Ketanserin of unlabeled ligand, and total binding is calculated from the radioactivity of [^3H]-Mesulergine in the absence of the compound of the present invention (Vehicle). Finally, the Ki value is calculated from the dose-response curve.
(The binding activity of the compound according to the present invention is calculated from the following binding inhibition rate (%).) Inhibition rate (%) = [1−(c−a)/(b−a)] × 100 [formula] • a; average cpm of non-specific binding • b; average cpm of total binding • c; cpm in the presence of the test compound
The compounds of the present invention were tested essentially as described above.

[2] = target: T2, human recombinant 5-HT2A receptor (Homo sapiens, UniProt P28223); assay: Test Example 1-2: 5-HT2A receptor binding inhibition test ([3H]-Ketanserin; non-specific ligand Ketanserin)
T2 construct: expressed in transfected cells; host or cells: Jump-In HEK cells (membrane preparation)
T2 sequence (P28223 whole entry): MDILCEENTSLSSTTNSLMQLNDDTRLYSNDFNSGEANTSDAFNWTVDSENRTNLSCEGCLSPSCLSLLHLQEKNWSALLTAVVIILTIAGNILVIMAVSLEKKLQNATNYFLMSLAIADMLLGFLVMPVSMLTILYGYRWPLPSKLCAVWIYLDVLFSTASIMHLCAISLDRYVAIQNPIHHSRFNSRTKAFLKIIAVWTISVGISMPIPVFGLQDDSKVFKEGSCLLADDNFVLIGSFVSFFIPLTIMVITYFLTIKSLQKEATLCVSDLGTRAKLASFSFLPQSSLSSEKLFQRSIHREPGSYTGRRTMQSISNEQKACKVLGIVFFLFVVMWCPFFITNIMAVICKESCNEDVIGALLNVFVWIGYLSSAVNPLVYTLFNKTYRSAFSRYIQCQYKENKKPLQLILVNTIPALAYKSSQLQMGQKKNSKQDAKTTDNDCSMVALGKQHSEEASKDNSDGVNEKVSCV
Method in brief: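 Membranes expressing the receptor were incubated with [3H]-ketanserin and compound for 1.5 h at 25 °C, then filtered onto plates presoaked in 50 mmol/L Tris-HCl pH 7.4 and scintillation-counted. Non-specific binding was defined with 500 µmol/L unlabeled ketanserin. Ki was taken from dose-response curves, with Kd set for each membrane lot by Scatchard analysis.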

[3] = [3H]-Ketanserin, non-specific binding with 500 µmol/L Ketanserin, room temperature (25°C), 1.5 hours, read-out: h 5-HT2A Ki

Ki [1] [nM] | Ki [2, 3] [nM] | Structure (SMILES) | Ki [2] [nM]
0.452 | 0.258 | Cn1ncc(Br)c1-c1cc(Nc2ccc(C3CC3)cn2)cnc1OCCO [Compound I-128] | –
0.959 | 0.237 | Cn1ncc(Br)c1-c1cc(Nc2ncc(C3CC3)s2)cnc1OCCO [Compound I-129] | –
3.26 | 0.256 | Cn1ncc(Br)c1-c1cc(Nc2ncc(Cl)s2)cnc1OCCO [Compound I-130] | –
1.25 | 0.163 | Cn1ncc(Br)c1-c1cc(Nc2ncc(C(F)(F)F)cn2)cnc1OCCO [Compound I-131] | –
5 | 0.236 | Cn1ncc(Br)c1-c1cc(Nc2ncc(Cl)cn2)cnc1OCCO [Compound I-132] | –
2.53 | 0.322 | Cn1ncc(Br)c1-c1cc(Nc2ncc(C3CC3)cn2)cnc1OCCO [Compound I-133] | –
13.2 | 0.621 | Cc1ncnc(C)c1-c1cc(Nc2ncc(C(F)(F)F)cc2F)cnc1OCCO [Compound I-134] | –
7.13 | 1.24 | Cc1nc(C)c(-c2cc(Nc3ncc(C(F)(F)F)cc3F)cnc2OCCO)c(C)n1 [Compound I-135] | –
0.277 | 0.167 | Cn1ncc(Cl)c1-c1cc(Nc2ncc(Cl)cc2F)ccc1OCCO [Compound I-136] | –
0.772 | 0.205 | Cn1ncc(Cl)c1-c1cc(Nc2ncc(F)cc2F)ccc1OCCO [Compound I-137] | –
4.76 | 0.264 | Cn1ncc(Cl)c1-c1cc(Nc2ncc(Cl)cn2)ccc1OCCO [Compound I-138] | –
7.73 | 0.431 | Cn1ncc(F)c1-c1cc(Nc2ncc(Cl)cc2F)cnc1OCCO [Compound I-139] | –
1.06 | 0.148 | Cc1cnn(C)c1-c1cc(Nc2ncc(Cl)cc2F)ccc1OCCO [Compound I-140] | –
4.07 | 0.296 | Cc1cnn(C)c1-c1cc(Nc2ncc(Cl)cc2F)cnc1OCCO [Compound I-141] | –
0.195 | 0.269 | Cn1ncc(Cl)c1-c1cc(Nc2ncc(C(F)(F)F)cc2F)cnc1OCCO [Compound I-142] | –
0.274 | 0.259 | Cn1ncc(Cl)c1-c1cc(Nc2ncc(Cl)cc2F)cnc1OCCO [Compound I-143] | –
1.35 | 0.365 | Cn1ncc(Br)c1-c1cc(Nc2ncc(Cl)cn2)c(F)cc1OCCO [Compound I-149] | –
0.52 | 0.354 | Cn1ncc(Br)c1-c1cc(Nc2ncc(Cl)cc2F)c(F)cc1OCCO [Compound I-152] | –
0.351 | 0.286 | Cn1ncc(Br)c1-c1cc(Nc2ccc(Cl)cn2)c(F)cc1OCCO [Compound I-153] | –
1.04 | 0.318 | Cn1ncc(Br)c1-c1cc(Nc2ncc(Cl)cc2F)ncc1OCCO [Compound I-155] | –
1.78 | 0.315 | Cn1ncc(Cl)c1-c1cc(Nc2ncc(Cl)cc2F)ncc1OCCO [Compound I-156] | –

The remaining lines, values behind:

Structure (SMILES) | Ki [1] [nM] | Ki [2, 3] [nM] | Ki [2] [nM]
Cn1ncc(C#N)c1-c1cc(Nc2ccc(OC(F)(F)F)cn2)ccc1OCCO [Compound I-121] | 1.3 | 0.279 | –
Cc1nc(C)c(-c2cc(Nc3ccc(C(F)(F)F)cn3)ccc2OCCO)c(C)n1 [Compound I-122] | 1.38 | 0.485 | –
Cc1nc(C)c(-c2cc(Nc3ccc(Cl)cn3)ccc2OCCO)c(C)n1 [Compound I-123] | 5.59 | 0.81 | –
Cc1ncnc(C)c1-c1cc(Nc2ccc(OC(F)(F)F)cn2)ccc1OCCO [Compound I-124] | 2.32 | 0.259 | –
Cn1ncc(C#N)c1-c1cc(Nc2ccc(C(F)(F)F)cn2)c(F)cc1OCCO [Compound I-125] | 6.04 | 0.36 | –
Cc1cnn(C)c1-c1cc(Nc2ccc(C(F)(F)F)cn2)c(Oc2ccn(C)n2)cc1OCCO [Compound I-126] | 4.42 | 0.654 | –
Cc1cnn(C)c1-c1cc(Nc2ncc(C(F)(F)F)cc2F)c(F)cc1OCCO [Compound I-144] | 2.49 | 0.341 | –
Cn1ncc(F)c1-c1cc(Nc2ncc(C(F)(F)F)cc2F)c(F)cc1OCCO [Compound I-145] | 4.76 | 0.202 | –
Cc1noc(C)c1-c1cc(Nc2ncc(C(F)(F)F)cc2F)c(F)cc1OCCO [Compound I-147] | 4.75 | 0.259 | –
Cn1ncc(Br)c1-c1cc(Nc2ncc(C(F)(F)F)cn2)c(F)cc1OCCO [Compound I-148] | 0.906 | 0.506 | –
Cn1ncc(Br)c1-c1cc(Nc2ncc(C(F)(F)F)cc2F)c(F)cc1OCCO [Compound I-150] | 0.239 | 0.279 | –
Cn1ncc(Br)c1-c1cc(Nc2ccc(C(F)(F)F)cn2)c(F)cc1OCCO [Compound I-151] | 0.206 | 0.292 | –
Cn1ncc(Br)c1-c1cc(Nc2ncc(F)cc2F)c(F)cc1OCCO [Compound I-154] | 1.1 | 0.332 | –
Cc1cnn(C)c1-c1cc(Nc2ccc(C(F)(F)F)cn2)c(F)cc1OCCO [Compound I-157] | 2.33 | 0.238 | –
Cc1nc(C)c(-c2cc(Nc3ccc(C(F)(F)F)cn3)c(F)cc2OCCO)c(C)n1 [Compound I-158] | 3.5 | 0.907 | –
Cn1ncc(Br)c1-c1cc(Nc2ncc(C(F)(F)F)cn2)ncc1OCCO [Compound I-159] | 1.88 | 0.295 | –
Cn1ncc(C#N)c1-c1cc(Nc2ncc(C(F)(F)F)cc2F)ccc1OCCO [I-031] | 1.6 | – | 0.239
C=C(C)c1cnn(C)c1-c1cc(Nc2ncc(C(F)(F)F)cc2F)ccc1OCCO [I-054] | 1.03 | – | 0.632
CC(C)c1cnn(C)c1-c1cc(Nc2ncc(C(F)(F)F)cc2F)ccc1OCCO [I-056] | 1.04 | – | 1.3
C#Cc1cnn(C)c1-c1cc(Nc2ncc(C(F)(F)F)cc2F)ccc1OCCO [I-058] | 0.456 | – | 0.418
Cn1ncc(Br)c1-c1cc(Nc2nc3ccc(Cl)cc3s2)ccc1OCCO [I-064] | 0.18 | – | 0.327
Cn1cnc(C#N)c1-c1cc(Nc2ncc(C(F)(F)F)cc2F)ccc1OCCO [I-065] | 5.02 | – | 0.15
Cn1ncc(Br)c1-c1cc(Nc2ncc(C(F)(F)F)cc2F)cnc1OCCO [I-082] | 0.358 | – | 0.184
Cn1ncc(C#N)c1-c1cc(Nc2ncc(C(F)(F)F)cc2F)c(F)cc1OCCO [I-108] | 6.23 | – | 0.478
